Counter-ions that a name gives are not always drawn. Like-named read-outs stand apart in the source and are kept apart here.
Legend:
Assay type in all cases: biochemical
[1] = target: S. aureus DltA (Staphylococcus aureus (strain NCTC 8325 / PS 47), UniProt Q2FZW6); test: in vitro DltA activity assay (luminescence), S. aureus DltA; conditions: recombinant DltA, 30 min pre-incubation, 0.5 mM D-Alanine, 0.5-5 μM ATP; read-out: S. aureus DltA IC50
Procedure: (§1) The effect of the compounds of the invention on DltA enzymes has been based on the measure of their inhibition of DltA activity in vitro. To this end, recombinant proteins DltA were expressed and purified after cloning of the genes of S. aureus, E. faecalis, E. faecium and S. agalactiae as described thereafter. The capacity of the compounds of the invention to inhibit DltA enzymatic activity was assessed using the DltA assays as described below:
(§2) The dltA gene was amplified from chromosomal DNA of S. aureus, E. faecalis, E. faecium and S. agalactiae and introduced into E. coli BL21 (Invitrogen, Carlsbad, Calif.) following manufacturer's instruction. Bacteria were grown at 37° C. under aerobic conditions and isopropyl-beta-D-thiogalactopyranoside (IPTG) was added to 0.5-1 mM when OD600 of the bacterial culture had reached 0.5. After a further incubation for 3 hours, cells were harvested by centrifugation. Purification of the recombinant DltA protein was performed by affinity chromatography on nickel-nitrilotriacetic acid (Ni-NTA) column following manufacturer's instructions (Qiagen). Fractions containing recombinant DltA protein were adjusted to 50% glycerol and stored at −20° C. until use.
(§3) The binding potency of the inhibitors against DltA enzyme was assessed by IC50 determination in an in vitro DltA activity assay. The assay buffer “AB” contained 50 mM Hepes pH8.0, 10 mM MgCl2, 50 mM KCl, 0.012% Triton-X100, 10 mM DTT and 100 nM Myelin-basic protein. The following components were added in a white polystyrene Costar plate up to a final volume of 30 μL: 3 μL DMSO, or inhibitor dissolved in DMSO and 27 μL DltA enzyme in AB. After 30 min of pre-incubation at room temperature, 30 μL of Substrates mix in AB were added in each well to a final volume of 60 μL. This reaction mixture was then composed of DltA (produced in house from S. aureus, E. faecalis, E. faecium and S. agalactiae), 0.5 mM D-Alanine (Sigma), 0.5-5 μM ATP (Sigma) and 0.05 u/ml inorganic pyrophosphatase (Sigma) in assay buffer. After typically 1-2 hours of incubation at room temperature (conversion rate around 30%), 30 μL of the revelation mix were added to a final volume of 90 μL, including the following constituents at the respective final concentrations: 10000 u/ml luciferase (Sigma), 30 μM D-luciferin (Sigma), 100 μM N-acetylcysteamine (Aldrich). Luminescence intensity was immediately measured on a Fluostar Optima (BMG) (excitation 360 nm, emission 520 nm) and converted into inhibition percentages. For IC50 determinations (Inhibitory Concentration 50%) the inhibitor was added at 6 to 10 different concentrations and the related inhibitions were fitted to a classical Langmuir equilibrium model using XLFIT (IDBS).
(§4) For compounds interfering with the luminescent signal (quenching), the same experiment without DltA enzyme was performed to allow quenching determination and correction.

[2] = target: E. feacalis DltA (Enterococcus faecalis, UniProt Q830N0); test: in vitro DltA activity assay (luminescence), E. faecalis DltA; conditions: recombinant DltA, 30 min pre-incubation, 0.5 mM D-Alanine, 0.5-5 μM ATP; read-out: E. feacalis DltA IC50
Sequence of E. feacalis DltA (Q830N0 1-506): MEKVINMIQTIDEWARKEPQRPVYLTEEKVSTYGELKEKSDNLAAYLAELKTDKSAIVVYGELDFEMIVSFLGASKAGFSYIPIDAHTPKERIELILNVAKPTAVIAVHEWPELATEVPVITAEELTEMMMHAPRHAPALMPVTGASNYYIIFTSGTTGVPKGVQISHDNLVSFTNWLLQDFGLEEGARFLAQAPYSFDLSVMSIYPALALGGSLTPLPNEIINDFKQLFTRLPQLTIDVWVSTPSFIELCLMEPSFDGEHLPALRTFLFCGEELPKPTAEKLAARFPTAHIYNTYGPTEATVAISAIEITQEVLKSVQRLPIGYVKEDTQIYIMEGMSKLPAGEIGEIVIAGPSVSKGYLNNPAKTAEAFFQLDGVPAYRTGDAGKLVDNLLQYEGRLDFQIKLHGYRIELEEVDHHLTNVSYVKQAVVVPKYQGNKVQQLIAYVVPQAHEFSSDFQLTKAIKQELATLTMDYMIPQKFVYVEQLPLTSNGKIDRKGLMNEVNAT
Procedure: as §1, §2, §3, §4

[3] = target: E. feacium DltA (Enterococcus faecium, UniProt Q3XZT7); test: in vitro DltA activity assay (luminescence), E. faecium DltA; conditions: recombinant DltA, 30 min pre-incubation, 0.5 mM D-Alanine, 0.5-5 μM ATP; read-out: E. feacium DltA IC50
Sequence of E. feacium DltA (Q3XZT7 1-504): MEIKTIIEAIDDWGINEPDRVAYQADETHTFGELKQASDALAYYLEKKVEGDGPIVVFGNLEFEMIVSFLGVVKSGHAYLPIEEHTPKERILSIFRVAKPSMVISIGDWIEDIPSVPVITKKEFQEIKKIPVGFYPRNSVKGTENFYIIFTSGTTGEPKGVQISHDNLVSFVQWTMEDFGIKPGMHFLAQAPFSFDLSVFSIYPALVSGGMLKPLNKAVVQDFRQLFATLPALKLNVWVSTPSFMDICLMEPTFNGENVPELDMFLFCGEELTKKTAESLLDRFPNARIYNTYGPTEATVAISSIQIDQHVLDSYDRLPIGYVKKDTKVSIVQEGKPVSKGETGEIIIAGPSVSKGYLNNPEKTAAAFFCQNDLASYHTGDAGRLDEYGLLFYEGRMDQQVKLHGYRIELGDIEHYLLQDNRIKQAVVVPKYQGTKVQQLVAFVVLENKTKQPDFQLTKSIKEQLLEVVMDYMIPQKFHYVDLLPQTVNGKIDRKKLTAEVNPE
Procedure: as §1, §2, §3, §4

[4] = target: S. Agalactiae DltA (Streptococcus agalactiae serotype III (strain NEM316), UniProt Q8VM67); test: in vitro DltA activity assay (luminescence), S. agalactiae DltA
Procedure: as §1, §2, §3, §4

[5] = recombinant DltA, 30 min pre-incubation, 0.5 mM D-Alanine, 0.5-5 μM ATP, read-out: S. Agalactiae DltA IC50

| SMILES | IC50 [1] | IC50 [2] | IC50 [3] | IC50 [4, 5] | IC50 [4] |
| --- | --- | --- | --- | --- | --- |
| CN(C)CCN(C)c1cc(-c2ccc3c(c2)ncn3-c2ccccc2)c2nc[nH]c2c1C(N)=O [Example 204, 5-[2-(dimethylamino)ethyl-methyl-amino]-7-(1-phenylbenzimidazol-5-yl)-3H-benzimidazole-4-carboxamide] | 17 nM | 12 nM | 58 nM | 1400 nM | – |
| CN1CCC[C@@H]1COc1cc(-c2ccc3c(c2)ncn3C2CCCOC2)c2nc[nH]c2c1C(N)=O (stereo partly drawn) [Example 215, 5-[[(2R)-1-methylpyrrolidin-2-yl]methoxy]-7-(1-tetrahydropyran-3-ylbenzimidazol-5-yl)-3H-benzimidazole-4-carboxamide methanesulfonic acid salt] | 0.8 nM | 1.4 nM | 5.7 nM | – | 86 nM |
| N#Cc1c(N2CCC(CO)(CO)CC2)cc(-c2ccc3c(c2)ncn3C2CCCCC2)c2nc[nH]c12 [Example 61, 6-(4,4-Bis-hydroxymethyl-piperidin-1-yl)-1′-cyclohexyl-1H,1′H-[4,5′]bibenzimidazolyl-7-carbonitrile] | 240 nM | 110 nM | 230 nM | 4700 nM | – |
| OCC1(CO)CCN(c2cc(-c3ccc4c(c3)ncn4C3CCCCC3)c3nc[nH]c3c2)CC1 [Example 34, [1-(1′-Cyclohexyl-1H,1′H-[4,5′]bibenzimidazolyl-6-yl)-4-hydroxymethyl-piperidin-4-yl]-methanol] | 110 nM | 79 nM | 170 nM | 380 nM | – |
| NC(=O)c1c(F)cc(-c2ccc3c(c2)ncn3C2CCCCC2)c2nc[nH]c12 [Example 63, 1′-Cyclohexyl-6-fluoro-1H,1′H-[4,5′]bibenzimidazolyl-7-carboxamide] | 49 nM | 43 nM | 83 nM | 2000 nM | – |
| CN(C)CCN(C)c1cc(-c2ccc(N(C)C)nc2)c2nc[nH]c2c1C(N)=O [Example 205, 5-[2-(dimethylamino)ethyl-methyl-amino]-7-[6-(dimethylamino)-3-pyridyl]-3H-benzimidazole-4-carboxamide] | 140 nM | 9.2 nM | 30 nM | 4300 nM | – |
| NC(=O)c1c(N2CCC(CCO)C2)cc(-c2ccc3c(c2)ncn3C2CCCCC2)c2nc[nH]c12 (centres unmarked) [Example 77, 1′-Cyclohexyl-6-[3-(2-hydroxy-ethyl)-pyrrolidin-1-yl]-1H,1′H-[4,5′]bibenzimidazolyl-7-carboxamide] | 77 nM | 41 nM | 110 nM | 1300 nM | – |
| COCCN(C)c1cc(-c2ccc3c(c2)ncn3C2CCCCC2)c2nc[nH]c2c1C(N)=O [Example 176, 1′-Cyclohexyl-6-[(2-methoxy-ethyl)-methyl-amino]-1H,1′H-[4,5′]bibenzimidazolyl-7-carboxamide] | 940 nM | 35 nM | 190 nM | 2300 nM | – |
| CN(CCN1CCCC1)c1cc(-c2cnc3c(c2)CCCO3)c2nc[nH]c2c1C(N)=O [Example 181, 7-(3,4-Dihydro-2H-pyrano[2,3-b]pyridin-6-yl)-5-[methyl-(2-pyrrolidin-1-yl-ethyl)-amino]-3H-benzimidazole-4-carboxamide] | 51 nM | 9.2 nM | 160 nM | 180 nM | – |
| CCN(CC)CCN(C)c1cc(-c2ccc3c(c2)ncn3C2CCCCC2)c2nc[nH]c2c1C(N)=O [Example 130, 1′-Cyclohexyl-6-[(2-diethylamino-ethyl)-methyl-amino]-1H,1′H-[4,5′]bibenzimidazolyl-7-carboxamide] | 73 nM | 36 nM | 170 nM | 790 nM | – |
| N#Cc1c(NCCO)cc(-c2ccc3c(c2)ncn3C2CCCCC2)c2nc[nH]c12 [Example 78] | 210 nM | 170 nM | 590 nM | 5400 nM | – |
| O=C(NO)c1c(F)cc(-c2ccc3c(c2)ncn3C2CCCCC2)c2nc[nH]c12 [Example 111, 1′-Cyclohexyl-6-fluoro-1H,1′H-[4,5′]bibenzimidazolyl-N-hydroxy-7-carboxamide] | 280 nM | 610 nM | 1100 nM | 11000 nM | – |
| CN(C)CCN(C)c1cc(-c2cncc(N3CCCC3)c2)c2nc[nH]c2c1C(N)=O [Example 230, 5-[2-(dimethylamino)ethyl-methyl-amino]-7-(5-pyrrolidin-1-yl-3-pyridyl)-3H-benzimidazole-4-carboxamide] | 64 nM | 30 nM | 280 nM | 2100 nM | – |
| c1nc2c(-c3ccc4c(c3)ncn4C3CCCCC3)cc(N3CC4CNCC4C3)nc2[nH]1 (centres unmarked) [Example 11, 7-(1-Cyclohexyl-1H-benzimidazol-5-yl)-5-(hexahydro-pyrrolo[3,4-c]pyrrol-2-yl)-3H-imidazo[4,5-b]pyridine] | 1.4 nM | 19 nM | 30 nM | 260 nM | – |
| CN1CCCC(Oc2cc(-c3cnc4c(c3)CCCO4)c3nc[nH]c3c2C(N)=O)C1 (centres unmarked) [Example 208, 7-(3,4-dihydro-2H-pyrano[2,3-b]pyridin-6-yl)-5-[(1-methyl-3-piperidyl)oxy]-3H-benzimidazole-4-carboxamide methanesulfonic acid salt] | 230 nM | 61 nM | 280 nM | 1900 nM | – |
| CN(C)CCN(C)c1cc(-c2cncc(C3CC3)c2)c2nc[nH]c2c1C(N)=O [Example 202, 4-(5-cyclopropylpyridin-3-yl)-6-((2-(dimethylamino)ethyl)-(methyl)amino)-1H-benzo[d]imidazole-7-carboxamide] | 110 nM | 95 nM | 190 nM | 2000 nM | – |
| CCCCn1cnc2cc(-c3cc(N(C)CCN(C)C)c(C(N)=O)c4[nH]cnc34)ccc21 [Example 203, 7-(1-butylbenzimidazol-5-yl)-5-[2-(dimethylamino)ethyl-methyl-amino]-3H-benzimidazole-4-carboxamide] | 28 nM | 7.3 nM | 110 nM | 350 nM | – |
| CCn1cnc2cc(-c3nc(N(C)CCN(C)C)c(C(N)=O)c4[nH]cnc34)ccc21 [Example 200, 6-[2-(dimethylamino)ethyl-methyl-amino]-4-(1-ethylbenzimidazol-5-yl)-1H-imidazo[4,5-c]pyridine-7-carboxamide] | 22 nM | 71 nM | 800 nM | 5400 nM | – |
| CN(C)CCN(C)c1cc(-c2ccc3scnc3c2)c2nc[nH]c2c1C(N)=O [Example 134, 7-Benzothiazol-5-yl-5-[(2-dimethylamino-ethyl)-methyl-amino]-3H-benzimidazole-4-carboxamide] | 250 nM | 24 nM | 120 nM | 1100 nM | – |
| CN(C)CCOc1cc(-c2cnc3c(c2)CCCO3)c2nc[nH]c2c1C(N)=O [Example 182, 7-(3,4-Dihydro-2H-pyrano[2,3-b]pyridin-6-yl)-5-(2-dimethylamino-ethoxy)-3H-benzimidazole-4-carboxamide methanesulfonic acid salt] | 4.8 nM | 4.5 nM | 59 nM | 480 nM | – |
| CCn1cnc2cc(-c3cc(OCCN(C)C)c(C(N)=O)c4[nH]cnc34)ccc21 [Example 198, 6-(2-Dimethylamino-ethoxy)-1′-ethyl-1H,1′H-[4,5′]]bibenzimidazolyl-7-carboxamide methanesulfonic acid salt] | – | – | – | 1400 nM | – |
| C[C@H]1CCCC(n2cnc3cc(-c4cc(N(C)CCN(C)C)c(C(N)=O)c5[nH]cnc45)ccc32)C1 (mixture of isomers) [Example 136] | 5.7 nM | – | – | 360 nM | – |

Reference: patent US10301305B2 (priority 2014, dated 2019)
